Measurements: PMC11850616, “Nanomolar inhibitor of the galectin-8 N-terminal domain binds via a non-canonical cation-π interaction” (Communications Chemistry, 2025)
Like-named read-outs stand apart in the source and are kept apart here.

Key:
Gal-1 = target: T1, Gal-1 (Homo sapiens, UniProt P09382); test: competitive fluorescence polarisation assay, Gal-1; type: binding; settings: for Kd: competitive FP, mean ± SEM of n = 4 to 8, 20 °C; for Gal-1 selectivity ratio Kd (Gal-1)/Kd (Gal-8N): ratio of FP Kd values
T1 construct: made in house
Experimental: (§1) Human galectins-1, -3, and -8N were expressed and purified as described previously[8],[23],[24]. Competitive fluorescence polarization assays were performed with a PHERAstar FS plate reader with software PHERAstar Mars version 2.10 R3 (BMG, Offenburg, Germany) and Tecan Spark multimode microplate reader (Tecan Trading AG, Switzerland), where a fluorescence anisotropy of fluorescent-tagged probes was measured by excitation at 485 nm and emission at 520 nm. Experiments were performed at 20 °C with Gal-1 at 0.5 µM, Gal-3 at 0.2 µM, and Gal-8N at 0.4 µM. Fluorescent probes used for experiments were 3,3′-dideoxy-3-[4-(fluorescein-5-yl-carbonylaminomethyl)-1H-1,2,3-triazol-1-yl]-3′-(3,5-di-methoxybenzamido)-1,1′-sulfanediyl-di-β-D-galactopyranoside at 0.02 µM for Gal-1 and -3 and 2-(fluorescein-5-yl-carbonylamino)ethyl β-D-galactopyranosyl(1-4)-2-acetamido-2-deoxy-β-D-glucopyranosyl(1–3)-β-D-galactopyranosyl(1–4)-β-D-glucopyranoside at 0.1 µM for Gal-8N in each well. Compounds were first dissolved in pure DMSO at 20 mM concentration and later diluted in 5% DMSO in PBS solution to 5-7 different concentrations. Each concentration was tested in duplicate. The highest inhibitor concentrations tested were 1.5 mM. The average values of Kd and SEM (standard error mean) were calculated from 4 to 8 duplicate measurements, showing 10–90% inhibition.

Gal-8C = target: T2, Gal-8C (Homo sapiens, UniProt O00214); test: competitive fluorescence polarisation assay, Gal-8C; type: binding; settings: for Kd: competitive FP, mean ± SEM of n = 4 to 8; for Gal-8C selectivity ratio Kd (Gal-8C)/Kd (Gal-8N): ratio of FP Kd values
T2 construct: than to the C-terminal domain (Gal-8C)
T2 sequence (O00214 187-317 limits assumed): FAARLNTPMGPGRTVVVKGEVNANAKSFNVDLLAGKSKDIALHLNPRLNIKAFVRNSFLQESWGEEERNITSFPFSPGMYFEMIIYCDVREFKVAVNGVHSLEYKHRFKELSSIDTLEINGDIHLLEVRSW

Gal-3 = target: T3, Gal-3 (Homo sapiens, UniProt P17931); test: competitive fluorescence polarisation assay, Gal-3; type: binding; set-up: key to Kd (Galectin-3): n. s.: n.s. = non-soluble at tested concentration; n. b.: n.b. = non-binding up to the highest tested concentration of 1500 µM; settings: for Kd / Kd (Galectin-3): competitive FP; for Gal-3 selectivity ratio Kd (Gal-3)/Kd (Gal-8N): ratio of FP Kd values
T3 construct: made in house
Experimental: as §1

Gal-8N = target: T4, Gal-8N (Homo sapiens, UniProt O00214); test: ligand efficiency (LE) and ligand-lipophilicity efficiency (LLE) calculations; settings: for LLE: from Gal-8N Kd and clogP; for LE: from Gal-8N Kd and number of non-hydrogen atoms
T4 construct: consisting of residues 4-158 was produced by Lund Protein Production Platform; made in house; host or cells: E. coli TUNER(DE3)
T4 sequence (O00214 4-158): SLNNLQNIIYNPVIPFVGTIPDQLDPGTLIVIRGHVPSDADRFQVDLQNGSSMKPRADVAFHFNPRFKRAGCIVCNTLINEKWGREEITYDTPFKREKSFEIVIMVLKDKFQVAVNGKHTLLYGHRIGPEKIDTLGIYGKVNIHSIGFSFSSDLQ

[1] = target: T5, Gal-8N (galectin-8 N-terminal domain) (Homo sapiens, UniProt O00214); test: competitive fluorescence polarisation assay, Gal-8N; type: binding; set-up: key to Kd (Galectin-8N): n. s.: n.s. = non-soluble at tested concentration; n. b.: n.b. = non-binding up to the highest tested concentration of 1500 µM; settings: competitive FP
T5 construct: made in house
T5 sequence (O00214 19-152 limits assumed): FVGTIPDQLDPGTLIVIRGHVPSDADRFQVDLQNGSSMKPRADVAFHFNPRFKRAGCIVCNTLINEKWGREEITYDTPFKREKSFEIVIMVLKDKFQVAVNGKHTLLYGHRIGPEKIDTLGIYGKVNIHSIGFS
Experimental: as §1

[2] = mean ± SEM of n = 4 to 8, 20 °C, read-out: Kd Gal-3
[3] = mean ± SEM of n = 4 to 8, 20 °C, read-out: Kd Gal-8N
[4] = ester compounds, highest tested concentration 1500 µM
[5] = ester compounds, highest tested concentration 1500 µM, read-out: Kd (Galectin-8N)
[6] = ester compounds, highest tested concentration 1500 µM, read-out: Kd (Galectin-3)

T1 sequence (P09382 whole entry): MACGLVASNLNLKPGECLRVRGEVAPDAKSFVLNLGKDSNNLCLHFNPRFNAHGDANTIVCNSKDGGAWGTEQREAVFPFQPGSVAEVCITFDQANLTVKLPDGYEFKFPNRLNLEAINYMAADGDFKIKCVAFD
T3 sequence (P17931 whole entry): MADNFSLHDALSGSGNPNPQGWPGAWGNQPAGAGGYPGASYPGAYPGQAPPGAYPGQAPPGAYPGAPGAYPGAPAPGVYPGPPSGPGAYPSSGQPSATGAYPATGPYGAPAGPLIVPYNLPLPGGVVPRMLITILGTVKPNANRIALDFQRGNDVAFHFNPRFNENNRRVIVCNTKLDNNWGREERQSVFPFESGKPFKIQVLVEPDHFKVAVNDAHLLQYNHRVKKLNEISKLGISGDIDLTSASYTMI

Kd (Gal-1)	Gal-1 selectivity ratio Kd (Gal-1)/Kd (Gal-8N) (Gal-1)	Kd (Gal-8C)	Gal-8C selectivity ratio Kd (Gal-8C)/Kd (Gal-8N) (Gal-8C)	Kd (Gal-3; [2])	Gal-3 selectivity ratio Kd (Gal-3)/Kd (Gal-8N) (Gal-3)	LLE (Gal-8N)	LE (Gal-8N)	Kd [1, 3]	Kd (Galectin-3) (Gal-3; [4])	Kd [1, 5]	Kd (Galectin-8N) [1, 4]	Kd (Gal-3; [6])	SMILES
104 ± 7.4 µM	23	568 ± 23 µM	126	22 ± 5.5 µM	4.9	0.0722	0.146 (kcal/mol)/heavy atom	4.5 ± 0.24 µM					COC(=O)c1cccc(-n2cc(CO[C@@H]3[C@@H](OCc4nc5ccc(C(=O)O)cc5n4C)[C@@H](O)[C@@H](CO)O[C@@H]3Sc3ccc(Cl)c(Cl)c3)nn2)c1 [Compound 15b]
69 ± 9.5 µM	19.7	355 ± 57 µM	101	4.7 ± 1 µM	1.3	0.182	0.149 (kcal/mol)/heavy atom	3.5 ± 0.37 µM					COC(=O)c1ccccc1-n1cc(CO[C@@H]2[C@@H](OCc3nc4ccc(C(=O)O)cc4n3C)[C@@H](O)[C@@H](CO)O[C@@H]2Sc2ccc(Cl)c(Cl)c2)nn1 [Compound 15a]
19 ± 0.67 µM	9	303 ± 19 µM	144	8.2 ± 0.7 µM	3.9	-0.257	0.185 (kcal/mol)/heavy atom	2.1 ± 0.1 µM					Cc1cccc(CO[C@@H]2[C@@H](OCc3nc4ccc(C(=O)O)cc4n3C)[C@@H](O)[C@@H](CO)O[C@@H]2Sc2ccc(Cl)c(Cl)c2)c1 [Compound 8b]
45 ± 0.8 µM	41	201 ± 37 µM	183	6.2 ± 1.1 µM	5.6	0.888	0.167 (kcal/mol)/heavy atom	1.1 ± 0.07 µM					Cn1c(CO[C@H]2[C@@H](O)[C@@H](CO)O[C@H](Sc3ccc(Cl)c(Cl)c3)[C@@H]2OCc2cn(-c3ccc(C(=O)O)cc3)nn2)nc2ccc(C(=O)O)cc21 [Compound 16c]
26 ± 1.1 µM	57	159 ± 4 µM	346	1.2 ± 0.2 µM	2.6	1.26	0.177 (kcal/mol)/heavy atom	0.46 ± 0.03 µM					Cn1c(CO[C@H]2[C@@H](O)[C@@H](CO)O[C@H](Sc3ccc(Cl)c(Cl)c3)[C@@H]2OCc2cn(-c3ccccc3C(=O)O)nn2)nc2ccc(C(=O)O)cc21 [Compound 16a]
16 ± 0.75 µM	7.6	256 ± 24 µM	122	5.9 ± 0.6 µM	2.8	-0.259	0.185 (kcal/mol)/heavy atom	2.1 ± 0.15 µM					Cc1ccc(CO[C@@H]2[C@@H](OCc3nc4ccc(C(=O)O)cc4n3C)[C@@H](O)[C@@H](CO)O[C@@H]2Sc2ccc(Cl)c(Cl)c2)cc1 [Compound 8c]
14 ± 0.82 µM	9.4	320 ± 12 µM	213	3.7 ± 0.5 µM	2.5	0.382	0.195 (kcal/mol)/heavy atom	1.5 ± 0.13 µM					Cn1c(CO[C@H]2[C@@H](O)[C@@H](CO)O[C@H](Sc3ccc(Cl)c(Cl)c3)[C@@H]2OCc2ccccc2)nc2ccc(C(=O)O)cc21 [Compound 8a]

The next lines start with the compound.

SMILES	Kd (Gal-1)	Gal-1 selectivity ratio Kd (Gal-1)/Kd (Gal-8N) (Gal-1)	Kd (Gal-8C)	Gal-8C selectivity ratio Kd (Gal-8C)/Kd (Gal-8N) (Gal-8C)	Kd (Gal-3; [2])	Gal-3 selectivity ratio Kd (Gal-3)/Kd (Gal-8N) (Gal-3)	LLE (Gal-8N)	LE (Gal-8N)	Kd [1, 3]	Kd (Galectin-3) (Gal-3; [4])	Kd [1, 5]	Kd (Galectin-8N) [1, 4]	Kd (Gal-3; [6])
COC(=O)c1ccc2nc(CO[C@H]3[C@@H](O)[C@@H](CO)O[C@H](Sc4ccc(Cl)c(Cl)c4)[C@@H]3OCC(=O)OC(C)(C)C)n(C)c2c1 [Compound 27]										n. s.	201.7 ± 1.3 µM		
Cn1c(CO[C@H]2[C@@H](O)[C@@H](CO)O[C@H](Sc3ccc(Cl)c(Cl)c3)[C@@H]2OCC2CCC2)nc2ccc(C(=O)O)cc21 [Compound 25]	16 ± 0.5 µM	10	383 ± 21 µM	239	9.4 ± 1.9 µM	5.9	0.593	0.204 (kcal/mol)/heavy atom	1.6 ± 0.07 µM				
COC(=O)c1ccc2nc(CO[C@H]3[C@@H](O)[C@@H](CO)O[C@H](Sc4ccc(Cl)c(Cl)c4)[C@@H]3OCc3ccc(C)cc3)n(C)c2c1 [Compound 7c]										n. s.		n. s.	
COC(=O)c1ccc2nc(CO[C@H]3[C@@H](O)[C@@H](CO)O[C@H](Sc4ccc(Cl)c(Cl)c4)[C@@H]3OCc3cccc(Cl)c3)n(C)c2c1 [Compound 7f]											> 1500 µM		> 1500 µM
COC(=O)c1ccc2nc(CO[C@H]3[C@@H](O)[C@@H](CO)O[C@H](Sc4ccc(Cl)c(Cl)c4)[C@@H]3OCc3ccccc3)n(C)c2c1 [Compound 7a]										n. s.		n. s.	
COC(=O)c1ccc2nc(CO[C@H]3[C@@H](O)[C@@H](CO)O[C@H](Sc4ccc(Cl)c(Cl)c4)[C@@H]3OCC3CC3)n(C)c2c1 [Compound 21]										n. s.	> 1500 µM		
COC(=O)c1ccc2nc(CO[C@H]3[C@@H](O)[C@@H](CO)O[C@H](Sc4ccc(Cl)c(Cl)c4)[C@@H]3OCc3cccc(C)c3)n(C)c2c1 [Compound 7b]										n. s.		n. s.	
Cn1c(CO[C@H]2[C@@H](O)[C@@H](CO)O[C@H](Sc3ccc(Cl)c(Cl)c3)[C@@H]2OCC2CCCCC2)nc2ccc(C(=O)O)cc21 [Compound 19]	76 ± 15 µM	18.5	662 ± 27 µM	161	21 ± 1.5 µM	5.1	-0.926	0.180 (kcal/mol)/heavy atom	4.1 ± 0.61 µM				
COC(=O)c1ccc2nc(CO[C@H]3[C@@H](O)[C@@H](CO)O[C@H](Sc4ccc(Cl)c(Cl)c4)[C@@H]3OCC3CCCCC3)n(C)c2c1 [Compound 18]										n. s.		n. s.	
C#CCO[C@@H]1[C@@H](OCc2nc3ccc(C(=O)OC)cc3n2C)[C@@H](O)[C@@H](CO)O[C@@H]1Sc1ccc(Cl)c(Cl)c1 [Compound 10]										n. s.	275 ± 5 µM		
COC(=O)c1ccc2nc(CO[C@H]3[C@@H](O)[C@@H](CO)O[C@H](Sc4ccc(Cl)c(Cl)c4)[C@@H]3OCc3ccc(F)cc3)n(C)c2c1 [Compound 7d]										n. s.		n. s.	
COC(=O)c1ccc2nc(CO[C@H]3[C@@H](O)[C@@H](CO)O[C@H](Sc4ccc(Cl)c(Cl)c4)[C@@H]3OCC3CCC3)n(C)c2c1 [Compound 24]										n. s.		n. s.	
COC(=O)c1ccc2nc(CO[C@H]3[C@@H](O)[C@@H](CO)O[C@H](Sc4ccc(Cl)c(Cl)c4)[C@@H]3OCc3ccc(Cl)c(Cl)c3)n(C)c2c1 [Compound 7e]											> 1500 µM		> 1500 µM
COC(=O)c1ccc2nc(CO[C@H]3[C@@H](O)[C@@H](CO)O[C@H](Sc4ccc(Cl)c(Cl)c4)[C@@H]3OC)n(C)c2c1 [Compound 31]												n. s.	109 ± 31 µM
COC(=O)c1ccc2nc(CO[C@H]3[C@@H](O)[C@@H](CO)O[C@H](Sc4ccc(Cl)c(Cl)c4)[C@@H]3OCC(=O)O)n(C)c2c1 [Compound 28]	44.7 ± 4.9 µM										7.7 ± 0.3 µM		8.5 ± 1.5 µM
